Data reported in publication PMC9958325 (Nature Communications, 2023).
Where “and” joins values, the source holds several entries; their conditions need not be identical. Equal entries are not always repeated. Where two headings read alike, the source gives them in different places.

What was measured:
human calpain = biological target: T1, human calpain (Homo sapiens, UniProt P07384); experiment: Human calpain activity assay; type: biochemical; conditions: for %inhibition against humanCalpain: triplicate
T1 sequence (P07384 2-714): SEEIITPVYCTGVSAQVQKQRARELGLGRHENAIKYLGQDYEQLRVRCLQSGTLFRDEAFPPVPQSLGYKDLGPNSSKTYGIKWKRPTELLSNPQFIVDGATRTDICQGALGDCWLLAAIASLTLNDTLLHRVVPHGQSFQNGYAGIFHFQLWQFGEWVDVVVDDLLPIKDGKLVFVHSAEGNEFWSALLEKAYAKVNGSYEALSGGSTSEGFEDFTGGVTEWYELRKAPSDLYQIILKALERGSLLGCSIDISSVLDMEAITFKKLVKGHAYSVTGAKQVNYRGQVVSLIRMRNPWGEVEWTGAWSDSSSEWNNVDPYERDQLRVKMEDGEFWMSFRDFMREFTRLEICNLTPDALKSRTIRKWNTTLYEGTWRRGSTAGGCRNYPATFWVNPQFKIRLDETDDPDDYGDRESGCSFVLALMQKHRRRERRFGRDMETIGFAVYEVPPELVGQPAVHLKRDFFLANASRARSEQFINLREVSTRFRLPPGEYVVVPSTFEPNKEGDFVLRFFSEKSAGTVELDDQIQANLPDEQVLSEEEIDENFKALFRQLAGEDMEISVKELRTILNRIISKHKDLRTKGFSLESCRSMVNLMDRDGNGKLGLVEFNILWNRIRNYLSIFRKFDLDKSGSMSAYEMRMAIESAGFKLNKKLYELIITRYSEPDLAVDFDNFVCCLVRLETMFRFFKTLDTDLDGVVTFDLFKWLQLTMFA
T1 sequence (P04632 1-268 partner): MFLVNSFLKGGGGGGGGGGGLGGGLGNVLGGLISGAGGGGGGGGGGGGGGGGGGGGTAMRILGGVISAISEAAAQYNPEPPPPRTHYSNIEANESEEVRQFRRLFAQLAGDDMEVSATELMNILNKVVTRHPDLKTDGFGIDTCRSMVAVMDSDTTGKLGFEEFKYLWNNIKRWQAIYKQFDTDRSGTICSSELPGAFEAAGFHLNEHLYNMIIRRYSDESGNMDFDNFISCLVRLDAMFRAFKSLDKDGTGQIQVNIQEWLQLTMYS

SARS-CoV-2^WK-521 = experiment: microbe, parasite or virus in culture; type: cell-based; parameters: EC95, individual assays / EC95, Average: unit: µM
[1] = system: SARS-CoV-2 TKYX00012/ο BA.1; experiment: microbe, parasite or virus in culture; type: cell-based
[2] = system: SARS-CoV-2 TKYS02037/ο BA.2; experiment: microbe, parasite or virus in culture; type: cell-based
[3] = system: SARS-CoV-2 TKYTS14631/ο BA.5; experiment: microbe, parasite or virus in culture; type: cell-based
[4] = system: SARS-CoV-2 UT-NCD1757-1N/ο BA.2.75; experiment: microbe, parasite or virus in culture; type: cell-based
[5] = system: SARS-CoV-2^WK521 in HeLa-ACE2-TMPRSS2 cells; experiment: Antiviral assay, HeLa-ACE2-TMPRSS2 cells, WK521; type: cell-based
[6] = system: SARS-CoV-2^WK521 in A549-ACE2-TMPRSS2 cells; experiment: Antiviral assay, A549-ACE2-TMPRSS2 cells, WK521; type: cell-based
[7] = Pharmacokinetic study in PXB-mice (human liver-chimeric)
HeLa-ACE2-TMPRSS2 cells = experiment: Intracellular concentrations of compounds (LC/MS), HeLa-ACE2-TMPRSS2 cells; conditions: 6 h; for Intracellular amount relative to nirmatrelvir: HeLa-ACE2-TMPRSS2 cells; for Intracellular amount, individual: listed as TKB-0248

Structure (SMILES): CC(C)(C)[C@H](NC(=O)C(F)(F)F)C(=O)N1C[C@H]2[C@@H]([C@H]1C(=S)N[C@@H](C[C@@H]1CCNC1=O)C(=O)c1nc3c(F)cccc3s1)C2(C)C [TKB248]
- Effect on human calpain (in words) (human calpain): neither of human cysteine enzymes, cathepsin L and calpain, were significantly affected
- %inhibition against humanCalpain (human calpain; 0.000128 µM): 0%
- %inhibition against humanCalpain (human calpain; 0.00064 µM): 0%
- %inhibition against humanCalpain (human calpain; 0.0032 µM): 0%
- %inhibition against humanCalpain (human calpain; 0.08 µM): 0%
- %inhibition against humanCalpain (human calpain; 0.4 µM): 0%
- %inhibition against humanCalpain (human calpain; 2 µM): 1%
- IC50 (human calpain; 60 minute incubation, mean ± 1 S.D., n=3, read-out: IC50, human calpains): > 2000 nM
- EC95, Average (SARS-CoV-2^WK-521): 0.8712
- EC95, individual assays (SARS-CoV-2^WK-521): 0.89 and 0.81 and 0.885 and 0.9
- SARS-CoV2 RNA VeroE6 cell-based assay EC95 (SARS-CoV-2^WK-521): 870 ± 40 nM
- EC50 (SARS-CoV-2^WK-521; read-out: EC50, Average): 225 nM
- EC50 (SARS-CoV-2^WK-521; read-out: EC50, VeroE6 + 2 µM CP100356): 30 ± 30 nM
- EC50 (SARS-CoV-2^WK-521; read-out: EC50, VeroE6 with CP100356, Average): 35 nM
- EC50 (SARS-CoV-2^WK-521; read-out: EC50, VeroE6 with CP100356, individual assays): 23 nM and 65 nM and 17 nM
- EC50 (SARS-CoV-2^WK-521; read-out: EC50, individual assays): 310 nM and 230 nM and 240 nM and 120 nM
- EC50 (SARS-CoV-2^WK-521; read-out: SARS-CoV2 RNA VeroE6 cell-based assay EC50): 220 ± 80 nM
- EC50 ([1]; read-out: EC50 against KTKYX00012/ο BA.1): 282 ± 43 nM
- EC50 ([1]; read-out: EC50 ο BA1, Average): 282 nM
- EC50 ([1]; read-out: EC50 ο BA1, individual assays): 290 nM and 235 nM and 320 nM
- EC50 ([2]; read-out: EC50 against TKYVS2037/ο BA.2): 210 ± 87 nM
- EC50 ([2]; read-out: EC50 ο BA2, individual assays): 150 nM
- EC50 ([3]; read-out: EC50 against TKYTS14631/ο BA.5): 70 ± 8 nM
- EC50 ([3]; read-out: EC50 ο BA5, Average): 70.7 nM
- EC50 ([3]; read-out: EC50 ο BA5, individual assays): 67.1 nM and 80 nM and 65 nM
- EC50 ([4]; read-out: EC50 against UT-NCD1757-1N/ο BA.2.75): 430 ± 91 nM
- EC50 ([4]; read-out: EC50 ο BA2.75, individual assays): 430 nM and 320 nM and 250 nM
- EC50 ([5]; SARS-CoV-2^WK521, read-out: EC50, HeLa-ACE2-TMPRSS2): 160 ± 75 nM
- EC50 ([5]; source data, listed as TKB0248, read-out: EC50, HeLa-AEC2-TMPRSS2, individual assays): 230 nM and 80 nM and 170 nM
- EC50 ([6]; SARS-CoV-2^WK521, read-out: EC50, A549-ACE2-TMPRSS2): 199 ± 5 nM
- EC50 ([6]; source data, listed as TKB0248, read-out: EC50, A549-AEC2-TMPRSS2, individual assays): 200 nM and 204 nM and 193 nM
- EC50 ([6]; source data, read-out: EC50, A549-AEC2-TMPRSS2, Average): 199 nM
- Cmax ([7]; N = 3 male PXB-mouse, 10 mg/kg p.o.): 1,925¶ ng/mL
- T1/2 ([7]; N = 3 male PXB-mouse, 10 mg/kg, oral (p.o.) value for TKB245): 4.34¶ h
- Plasma concentration ([7]; PXB-mice, i.v. 10 mg/kg, 10 min, individual mice, listed as TKB0248, 10 mg/kg): 8186.6 ng/mL and 8038.7 ng/mL and 9327.7 ng/mL
- Plasma concentration ([7]; PXB-mice, i.v. 10 mg/kg, 0.17 hr, individual mice, listed as TKB0248, 10 mg/kg): 8190 ng/mL and 8040 ng/mL and 9330 ng/mL
- Plasma concentration ([7]; PXB-mice, i.v. 10 mg/kg, 60 min, individual mice, listed as TKB0248, 10 mg/kg): 3193.2 ng/mL and 4290.6 ng/mL and 4927 ng/mL
- Plasma concentration ([7]; PXB-mice, i.v. 10 mg/kg, 1 hr, individual mice, listed as TKB0248, 10 mg/kg): 3190 ng/mL and 4290 ng/mL and 4930 ng/mL
- Plasma concentration ([7]; PXB-mice, i.v. 10 mg/kg, 240 min, individual mice, listed as TKB0248, 10 mg/kg): 955 ng/mL and 1072.2 ng/mL and 1659.6 ng/mL
- Plasma concentration ([7]; PXB-mice, i.v. 10 mg/kg, 4 hr, individual mice, listed as TKB0248, 10 mg/kg): 960 ng/mL and 1070 ng/mL and 1660 ng/mL
- Plasma concentration ([7]; PXB-mice, i.v. 10 mg/kg, 480 min, individual mice, listed as TKB0248, 10 mg/kg): 290 ng/mL and 301.5 ng/mL and 497.6 ng/mL
- Plasma concentration ([7]; PXB-mice, i.v. 10 mg/kg, 8 hr, individual mice, listed as TKB0248, 10 mg/kg): 290 ng/mL and 300 ng/mL and 500 ng/mL
- Plasma concentration ([7]; PXB-mice, i.v. 10 mg/kg, 1440 min, individual mice, listed as TKB0248, 10 mg/kg): 13.9 ng/mL and 20.8 ng/mL and 20 ng/mL
- Plasma concentration ([7]; PXB-mice, i.v. 10 mg/kg, 24 hr, individual mice, listed as TKB0248, 10 mg/kg): 0.01 µg/ml and 0.02 µg/ml (2×)
- Plasma concentration ([7]; PXB-mice, p.o. 10 mg/kg, 10 min, individual mice, listed as TKB0248, 10 mg/kg): 803.8 ng/mL and 639.6 ng/mL and 800.1 ng/mL
- Plasma concentration ([7]; PXB-mice, p.o. 10 mg/kg, 0.17 hr, individual mice, listed as TKB0248, 10 mg/kg): 0.8 µg/ml (2×) and 0.64 µg/ml
- Plasma concentration ([7]; PXB-mice, p.o. 10 mg/kg, 60 min, individual mice, listed as TKB0248, 10 mg/kg): 2400.6 ng/mL and 1592.1 ng/mL and 1781.9 ng/mL
- Plasma concentration ([7]; PXB-mice, p.o. 10 mg/kg, 1 hr, individual mice, listed as TKB0248, 10 mg/kg): 2400 ng/mL and 1590 ng/mL and 1780 ng/mL
- Plasma concentration ([7]; PXB-mice, p.o. 10 mg/kg, 240 min, individual mice, listed as TKB0248, 10 mg/kg): 1886.1 ng/mL and 944.6 ng/mL and 788.3 ng/mL
- Plasma concentration ([7]; PXB-mice, p.o. 10 mg/kg, 4 hr, individual mice, listed as TKB0248, 10 mg/kg): 1890 ng/mL and 940 ng/mL and 790 ng/mL
- Plasma concentration ([7]; PXB-mice, p.o. 10 mg/kg, 480 min, individual mice, listed as TKB0248, 10 mg/kg): 645.5 ng/mL and 263.6 ng/mL and 711 ng/mL
- Plasma concentration ([7]; PXB-mice, p.o. 10 mg/kg, 8 hr, individual mice, listed as TKB0248, 10 mg/kg): 650 ng/mL and 260 ng/mL and 710 ng/mL
- Plasma concentration ([7]; PXB-mice, p.o. 10 mg/kg, 1440 min, individual mice, listed as TKB0248, 10 mg/kg): 66.2 ng/mL and 80.3 ng/mL and 54.4 ng/mL
- Plasma concentration ([7]; PXB-mice, p.o. 10 mg/kg, 24 hr, individual mice, listed as TKB0248, 10 mg/kg): 70 ng/mL and 80 ng/mL and 50 ng/mL
- Oral F ([7]; male PXB-mouse 10 mg/kg i.v. and p.o., dose-normalized AUC ratio, 10 mg/kg): 72% and 72¶ %
- Plasma concentration ([7]; p.o., 10 min, individual animals (3 per time point), LC/MS/MS, listed as TKB0248): 803.78 ng/mL and 639.58 ng/mL and 800.12 ng/mL
- Plasma concentration ([7]; p.o., 60 min, individual animals (3 per time point), LC/MS/MS, listed as TKB0248): 2400.63 ng/mL and 1592.07 ng/mL and 1781.87 ng/mL
- Plasma concentration ([7]; p.o., 240 min, individual animals (3 per time point), LC/MS/MS, listed as TKB0248): 1886.06 ng/mL and 944.61 ng/mL and 788.27 ng/mL
- Plasma concentration ([7]; p.o., 480 min, individual animals (3 per time point), LC/MS/MS, listed as TKB0248): 645.53 ng/mL and 263.61 ng/mL and 711.03 ng/mL
- Plasma concentration ([7]; p.o., 1440 min, individual animals (3 per time point), LC/MS/MS, listed as TKB0248): 66.21 ng/mL and 80.35 ng/mL and 54.38 ng/mL
- Intracellular amount relative to nirmatrelvir (HeLa-ACE2-TMPRSS2 cells; 50 µM): 318 fold
- Intracellular amount relative to nirmatrelvir (HeLa-ACE2-TMPRSS2 cells; 100 µM): 165 fold
- Intracellular amount, avg (HeLa-ACE2-TMPRSS2 cells; Hela ACE2 TMPRSS2, 10uM): 295.717 pmol(total)
- Intracellular amount, individual (HeLa-ACE2-TMPRSS2 cells; Hela ACE2 TMPRSS2, 10uM): 295.283 pmol(total) and 296.151 pmol(total)
- Intracellular amount, avg (HeLa-ACE2-TMPRSS2 cells; Hela ACE2 TMPRSS2, 50uM): 570.720 pmol(total)
- Intracellular amount, individual (HeLa-ACE2-TMPRSS2 cells; Hela ACE2 TMPRSS2, 50uM): 643.805 pmol(total) and 497.635 pmol(total)
- Intracellular amount, avg (HeLa-ACE2-TMPRSS2 cells; Hela ACE2 TMPRSS2, 100uM): 630.843 pmol(total)
- Intracellular amount, individual (HeLa-ACE2-TMPRSS2 cells; Hela ACE2 TMPRSS2, 100uM): 605.189 pmol(total) and 656.496 pmol(total)
